The values below come from article PMC5513091, “A novel Alzheimer’s disease drug candidate targeting inflammation and fatty acid metabolism” (Alzheimer's Research & Therapy, 2017).

The structures appear in SMILES notation.

The experiment has as its system APPswe/PS1∆E9 mice. The experiment in a line: Fear-conditioning assay. It is filed as in vivo. The following applies: AD mice fed 200 ppm in chow for 3 months from 10 months of age; day 2. As to the method:
The APPswe/PS1∆E9-transgenic mice were characterized previously. Line 85 mice carry two transgenes, the mouse/human chimeric APPswe, linked to Swedish familial AD and human PS1∆E9. At 10 months of age, female transgenic mice were fed a defined diet (Harlan Teklad; Envigo, Indianapolis, IN, USA) with and without CAD-31 (200 ppm, approximately 10 mg/kg/day). Treatment continued for 3 months, followed by behavior testing and tissue harvesting.
Fear conditioning to either a cue or a context represents a form of associative learning. The readout that is measured in contextual and cued fear conditioning is a freezing response that occurs following the pairing of an unconditioned stimulus, such as a foot shock, with a conditioned stimulus, such as a particular context or cue (tone). The mouse will freeze if it remembers and associates that environment with the aversive stimulus. The hippocampus and the amygdala are required for fear memory, where the hippocampus is involved in the formation and retrieval of context fear associations and the amygdala is involved in conditioning and recall of associations to contextual and discrete cues. […] On day 2, the time spent freezing is measured over the entire time in the chamber. […] The percentage of time spent freezing by each mouse is averaged per group, and then groups can be compared and p values calculated to determine statistical significance.

Take `Cc1ccc(N(/N=C/c2cccc(OC(F)(F)F)c2)C(=O)C(F)(F)F)c(C)c1` [CAD-31]: the “time freezing in response to the context” value was “more time freezing in response to the context”.
